In patent US4321265A, “7α-Methoxycephalosporins” (Toyama Chemical Co., Ltd., priority 1977, dated 1982):
In brackets after ≈: the same amount, converted by molar mass.

Legend:
E. coli NIHJ = experiment: Minimum inhibitory concentration (MIC), Heart Infusion agar; format: cell-based; conditions: Escherichia coli; E. coli NIHJ; 10^6 cells/ml; 20 hours, 37° C.; read-out: minimum inhibitory concentration (MIC)
Experimental: (§1) Antibacterial activities of the representative compounds (Ib) of the 7α-methoxycephalosporins according to this invention are shown in Table 1. [drawing 20]
(§2) The figures given in Table 1 represent the minimum inhibitory concentration (MIC in mcg/ml) of each compound, which was determined according to the method described in "Chemotherapy (Society of Chemotherapy, Japan), Vol. 16, 98-99 (1968)": A culture obtained by cultivating the test bacterium in a Heart Infusion broth (Eiken Kagaku Co.) was inoculated into a Heart Infusion agar medium (Eiken Kagaku Co.). After 20 hours of the incubation at 37° C., the growth of the bacterium was inspected to determine the minimum inhibitory concentration (MIC in mcg/ml). The inoculation rate of the bacterium was 10^4 cells/plate (10^6 cells/ml).
(§3) (1) Minimum inhibitory concentration (MIC in mcg/ml).

Ps. aeruginosa S-68 = experiment: as above; format: cell-based; conditions: Pseudomonas aeruginosa, S68; Ps. aeruginosa S-68; 10^6 cells/ml; 20 hours, 37° C.; read-out: minimum inhibitory concentration (MIC)
Experimental: as §1, §2, §3

Klebsiella spp. Y-72 = experiment: as above; format: cell-based; conditions: SPP.Y72; Klebsiella spp. Y-72; 10^6 cells/ml; 20 hours, 37° C.; read-out: minimum inhibitory concentration (MIC)
Experimental: as §1, §2, §3

[1] = tested on: C. freundii GN-346 (Cephalosporinase-producing bacterium); experiment: as above; format: cell-based; conditions: Citrobacter freundii, GN346; C. freundii GN-346; 10^6 cells/ml; 20 hours, 37° C.; read-out: minimum inhibitory concentration (MIC)
Experimental: as §1, §2, §3

Ps. aeruginosa IFO-3445 = experiment: as above; format: cell-based; conditions: Pseudomonas aeruginosa, IFO3445; Ps. aeruginosa IFO-3445; 10^6 cells/ml; 20 hours, 37° C.; read-out: minimum inhibitory concentration (MIC)
Experimental: as §1, §2, §3

K. pneumoniae Y-50 = experiment: as above; format: cell-based; conditions: Klebsiella pneumoniae, Y50; K. pneumoniae Y-50; 10^6 cells/ml; 20 hours, 37° C.; read-out: minimum inhibitory concentration (MIC)
Experimental: as §1, §2, §3

[2] = tested on: Acinetobacter caloaceticus A-6; experiment: as above; format: cell-based; conditions: A6; Acinetobacter caloaceticus A-6; 10^6 cells/ml; 20 hours, 37° C.; read-out: minimum inhibitory concentration (MIC)
Experimental: as §1, §2, §3

Ser. marcescens W-8 = experiment: as above; format: cell-based; conditions: Serratia marcescens, W8; Ser. marcescens W-8; 10^6 cells/ml; 20 hours, 37° C.; read-out: minimum inhibitory concentration (MIC)
Experimental: as §1, §2, §3

Prot. vulgaris GN-76 = experiment: as above; format: cell-based; conditions: Proteus vulgaris, GN76; Prot. vulgaris GN-76; 10^6 cells/ml; 20 hours, 37° C.; read-out: minimum inhibitory concentration (MIC)
Experimental: as §1, §2, §3

Ser. marcescens IID620 = experiment: as above; format: cell-based; conditions: Serratia marcescens; Ser. marcescens IID620; 10^6 cells/ml; 20 hours, 37° C.; read-out: minimum inhibitory concentration (MIC)
Experimental: as §1, §2, §3

Ent. cloacae IID977 = experiment: as above; format: cell-based; conditions: Enterobacter cloacae; Ent. cloacae IID977; 10^6 cells/ml; 20 hours, 37° C.; read-out: minimum inhibitory concentration (MIC)
Experimental: as §1, §2, §3

Citrobacter N-7 = experiment: as above; format: cell-based; conditions: N7; Citrobacter N-7; 10^6 cells/ml; 20 hours, 37° C.; read-out: minimum inhibitory concentration (MIC)
Experimental: as §1, §2, §3

[3] = tested on: S. aureus F-19 (Penicillinase-producing bacterium); experiment: as above; format: cell-based; conditions: Staphylococcus aureus; S. aureus F-19; 10^6 cells/ml; 20 hours, 37° C.; read-out: minimum inhibitory concentration (MIC)
Experimental: as §1, §2, §3

Ser. marcescens W-35 = experiment: as above; format: cell-based; conditions: Serratia marcescens, W35, 20 h, Ser. marcescens W-35; 10^6 cells/ml; 20 hours, 37° C. (Table 1); read-out: minimum inhibitory concentration (MIC)
Experimental: as §1
as §2, with “The inoculation rate of the bacterium was 10^4 cells/plate (10^6 cells/ml).” left out
as §3

[4] = tested on: Penicillinase (E. coli TK-3); experiment: Stability to β-lactamase, iodometry (Perret); format: biochemical; conditions: E. coli TK-3 penicillinase; PCG = 100; 30° C., pH 7.0
Experimental: (§4) The stability to β-lactamase was examined by iodometry at 30° C. by the method of Perret (Perret, C. J., "Iodometric assay of penicillinase", Nature, 174, 1012-1013 (1954)), except that a 0.1 M phosphate buffer solution (pH 7.0) was used in place of the 0.2 M phosphate buffer solution (pH 6.5). The stability of each compound was shown in Table 2 in terms of relative degree of hydrolysis, assuming the stability of Cephaloridin (CER) to cephalosporinase as 100 and the stability of Penicillin G (PCG) to penicillinase as 100.

[5] = tested on: Penicillinase (K. pneumoniae Y-4); experiment: Stability to β-lactamase, iodometry (Perret); format: biochemical; conditions: K. pneumoniae Y-4 penicillinase; PCG = 100; 30° C., pH 7.0
Experimental: as §4

[6] = tested on: Penicillinase (P. aeruginosa GN-3379); experiment: Stability to β-lactamase, iodometry (Perret); format: biochemical; conditions: P. aeruginosa GN-3379 penicillinase; PCG = 100; 30° C., pH 7.0
Experimental: as §4

[7] = biological target: T1, Cephalosporinase (S. marcescens W-8) (Serratia marcescens, UniProt P18539); experiment: Stability to β-lactamase, iodometry (Perret); format: biochemical; conditions: S. marcescens W-8 cephalosporinase; CER = 100; 30° C., pH 7.0
T1 construct: native preparation, details not in excerpts
T1 sequence (P18539 22-376): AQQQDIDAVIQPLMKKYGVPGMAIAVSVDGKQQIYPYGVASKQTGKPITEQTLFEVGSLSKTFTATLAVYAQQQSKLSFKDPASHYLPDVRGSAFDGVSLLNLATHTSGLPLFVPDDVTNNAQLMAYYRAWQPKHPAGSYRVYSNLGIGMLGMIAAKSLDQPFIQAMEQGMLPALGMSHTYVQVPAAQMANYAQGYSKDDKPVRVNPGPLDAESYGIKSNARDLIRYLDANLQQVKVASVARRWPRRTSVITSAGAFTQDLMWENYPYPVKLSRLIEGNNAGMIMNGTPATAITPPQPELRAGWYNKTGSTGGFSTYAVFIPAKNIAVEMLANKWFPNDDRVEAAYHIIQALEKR
Experimental: as §4

[8] = biological target: T2, Cephalosporinase (E. coli GN-5482) (Escherichia coli, UniProt P00811); experiment: Stability to β-lactamase, iodometry (Perret); format: biochemical; conditions: E. coli GN-5482 cephalosporinase; CER = 100; 30° C., pH 7.0
T2 construct: native preparation, details not in excerpts
T2 sequence (P00811 20-377): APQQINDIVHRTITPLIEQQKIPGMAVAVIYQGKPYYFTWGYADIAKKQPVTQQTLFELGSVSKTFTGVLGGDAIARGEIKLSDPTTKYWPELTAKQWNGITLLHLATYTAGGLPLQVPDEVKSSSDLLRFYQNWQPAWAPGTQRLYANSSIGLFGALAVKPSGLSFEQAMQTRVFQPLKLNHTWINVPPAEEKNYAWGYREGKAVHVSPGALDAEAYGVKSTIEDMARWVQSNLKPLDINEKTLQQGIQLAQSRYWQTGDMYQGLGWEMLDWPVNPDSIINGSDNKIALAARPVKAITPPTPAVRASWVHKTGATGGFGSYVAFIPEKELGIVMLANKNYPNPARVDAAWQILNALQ
Experimental: as §4

MIC (E. coli NIHJ) [µg/mL]	MIC (Ps. aeruginosa S-68) [µg/mL]	MIC (Klebsiella spp. Y-72) [µg/mL]	MIC [1] [µg/mL]	MIC (Ps. aeruginosa IFO-3445) [µg/mL]	MIC (K. pneumoniae Y-50) [µg/mL]	MIC [2] [µg/mL]	MIC (Ser. marcescens W-8) [µg/mL]	MIC (Prot. vulgaris GN-76) [µg/mL]	MIC (Ser. marcescens IID620) [µg/mL]	MIC (Ent. cloacae IID977) [µg/mL]	MIC (Citrobacter N-7) [µg/mL]	MIC [3] [µg/mL]	MIC (Ser. marcescens W-35) [µg/mL]	Compound	Stability to β-lactamase, relative degree of hydrolysis [4]	Stability to β-lactamase, relative degree of hydrolysis [5]	Stability to β-lactamase, relative degree of hydrolysis [6]	Stability to β-lactamase, relative degree of hydrolysis [7]	Stability to β-lactamase, relative degree of hydrolysis [8]
≤ 0.1	50 (≈ 70.4 µM)	25 (≈ 35.2 µM)	50 (≈ 70.4 µM)	25 (≈ 35.2 µM)	6.25 (≈ 8.81 µM)	25 (≈ 35.2 µM)	50 (≈ 70.4 µM)	0.78 (≈ 1.1 µM)	0.78 (≈ 1.1 µM)	25 (≈ 35.2 µM)	1.56 (≈ 2.2 µM)	6.25 (≈ 8.81 µM)	100 (≈ 141 µM)	CCN1CCN(C(=O)NC(C(=O)N[C@]2(OC)C(=O)N3C(C(=O)O)=C(CSc4nnnn4CC(=O)O)CS[C@@H]32)c2cccs2)C(=O)C1=O (some centres unmarked)					
≤ 0.1	12.5 (≈ 18 µM)	1.56 (≈ 2.24 µM)	12.5 (≈ 18 µM)	12.5 (≈ 18 µM)	0.39 (≈ 0.561 µM)	6.25 (≈ 8.98 µM)	50 (≈ 71.9 µM)	0.39 (≈ 0.561 µM)	0.2 (≈ 0.287 µM)	25 (≈ 35.9 µM)	1.56 (≈ 2.24 µM)	3.13 (≈ 4.5 µM)	12.5 (≈ 18 µM)	CCN1CCN(C(=O)NC(C(=O)N[C@]2(OC)C(=O)N3C(C(=O)O)=C(CSc4nnnn4CCO)CS[C@@H]32)c2cccs2)C(=O)C1=O (some centres unmarked)					
≤ 0.1	25 (≈ 37.8 µM)	12.5 (≈ 18.9 µM)	25 (≈ 37.8 µM)	12.5 (≈ 18.9 µM)	0.78 (≈ 1.18 µM)	6.25 (≈ 9.45 µM)	100 (≈ 151 µM)	3.13 (≈ 4.73 µM)	0.78 (≈ 1.18 µM)	25 (≈ 37.8 µM)	6.25 (≈ 9.45 µM)	3.13 (≈ 4.73 µM)	50 (≈ 75.6 µM)	CCN1CCN(C(=O)NC(C(=O)N[C@]2(OC)C(=O)N3C(C(=O)O)=C(CSc4nnnn4C)CS[C@@H]32)C2=CCC=CC2)C(=O)C1=O (some centres unmarked)					
														O=C(Cc1cccs1)N[C@@H]1C(=O)N2C(C(=O)[O-])=C(C[n+]3ccccc3)CS[C@H]12 [CER, Cephaloridin]	115	41	18	100	100
